Experiments:
[1] = molecular target: Sodium-dependent dopamine transporter (Rattus norvegicus, UniProt P23977); test: Binding affinity against dopamine transporter was determined by the displacement of [3H]WIN-35428 radioligand in rat brain; assay type: tissue-based
[2] = molecular target: Sodium-dependent serotonin transporter (Rattus norvegicus, UniProt P31652); test: Binding affinity against serotonin transporter by displacement of [3H]citalopram in rat brain; assay type: tissue-based
Cavia porcellus = species: Cavia porcellus; test: Ratio of binding affinities for dopamine transporter over sigma-1 receptor
[3] = molecular target: Monoamine transporters; Norepininephrine & dopamine (Rattus norvegicus) (UniProt P23977+Q9WTR4); test: Ratio of binding affinities for dopamine and norepinephrine transporters; assay type: protein assay
[4] = molecular target: Monoamine transporters; serotonin & dopamine (Rattus norvegicus) (UniProt P31652+P23977); test: Ratio for the binding affinities of dopamine transporter over serotonin transporter; assay type: protein assay
[5] = molecular target: Norepinephrine transporter (Rattus norvegicus, UniProt Q9WTR4); test: Displacement of [3H]nisoxetine from rat brain norepinephrine transporter; assay type: tissue-based
Sigma 2 receptor = test: Binding affinity against Sigma receptor type 2 was determined by the displacement of [3H]DTG/dextrallorphan radioligand; parameters: species or system Rattus norvegicus

Chain of Sodium-dependent dopamine transporter (P23977 whole entry): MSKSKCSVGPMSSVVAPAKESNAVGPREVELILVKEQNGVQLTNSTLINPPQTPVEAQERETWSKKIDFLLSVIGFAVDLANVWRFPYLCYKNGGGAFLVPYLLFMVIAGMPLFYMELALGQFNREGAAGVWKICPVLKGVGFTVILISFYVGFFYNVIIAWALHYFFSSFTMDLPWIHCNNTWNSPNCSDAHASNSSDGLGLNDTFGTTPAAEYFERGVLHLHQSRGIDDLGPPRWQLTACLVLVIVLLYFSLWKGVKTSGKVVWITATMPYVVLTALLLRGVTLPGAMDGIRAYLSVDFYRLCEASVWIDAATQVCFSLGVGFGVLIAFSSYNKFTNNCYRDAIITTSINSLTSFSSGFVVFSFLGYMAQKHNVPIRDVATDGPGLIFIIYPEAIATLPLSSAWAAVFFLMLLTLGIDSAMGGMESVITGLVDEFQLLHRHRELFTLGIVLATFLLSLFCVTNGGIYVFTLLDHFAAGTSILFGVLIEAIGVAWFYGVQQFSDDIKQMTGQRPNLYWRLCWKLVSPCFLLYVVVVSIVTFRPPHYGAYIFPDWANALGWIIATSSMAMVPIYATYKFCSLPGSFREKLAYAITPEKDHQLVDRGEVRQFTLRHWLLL
Chain of Monoamine transporters; serotonin & dopamine (Rattus norvegicus) (P23977 whole entry, looked up): as the sequence (P23977 whole entry) above
Chain of Monoamine transporters; serotonin & dopamine (Rattus norvegicus) (P31652 whole entry, looked up): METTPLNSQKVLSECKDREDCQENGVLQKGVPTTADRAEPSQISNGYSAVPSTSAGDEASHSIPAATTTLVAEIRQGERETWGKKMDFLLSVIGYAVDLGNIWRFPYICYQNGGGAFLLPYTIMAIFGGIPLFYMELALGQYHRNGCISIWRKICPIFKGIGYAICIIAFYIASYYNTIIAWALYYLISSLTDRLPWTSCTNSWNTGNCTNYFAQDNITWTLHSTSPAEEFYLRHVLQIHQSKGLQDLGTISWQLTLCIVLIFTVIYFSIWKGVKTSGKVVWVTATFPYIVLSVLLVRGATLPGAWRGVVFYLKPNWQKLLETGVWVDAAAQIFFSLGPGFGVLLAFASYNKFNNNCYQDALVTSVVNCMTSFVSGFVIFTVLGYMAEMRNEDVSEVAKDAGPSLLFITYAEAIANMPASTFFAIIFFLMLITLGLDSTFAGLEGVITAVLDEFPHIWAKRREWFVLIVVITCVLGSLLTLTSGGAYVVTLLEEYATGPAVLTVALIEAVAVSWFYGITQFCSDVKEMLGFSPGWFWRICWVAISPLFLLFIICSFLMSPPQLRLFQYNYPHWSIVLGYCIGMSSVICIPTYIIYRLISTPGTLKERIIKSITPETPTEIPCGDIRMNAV
Chain of Sodium-dependent serotonin transporter (P31652 whole entry): as the sequence (P31652 whole entry, looked up) above
Chain of Norepinephrine transporter (Q9WTR4 whole entry): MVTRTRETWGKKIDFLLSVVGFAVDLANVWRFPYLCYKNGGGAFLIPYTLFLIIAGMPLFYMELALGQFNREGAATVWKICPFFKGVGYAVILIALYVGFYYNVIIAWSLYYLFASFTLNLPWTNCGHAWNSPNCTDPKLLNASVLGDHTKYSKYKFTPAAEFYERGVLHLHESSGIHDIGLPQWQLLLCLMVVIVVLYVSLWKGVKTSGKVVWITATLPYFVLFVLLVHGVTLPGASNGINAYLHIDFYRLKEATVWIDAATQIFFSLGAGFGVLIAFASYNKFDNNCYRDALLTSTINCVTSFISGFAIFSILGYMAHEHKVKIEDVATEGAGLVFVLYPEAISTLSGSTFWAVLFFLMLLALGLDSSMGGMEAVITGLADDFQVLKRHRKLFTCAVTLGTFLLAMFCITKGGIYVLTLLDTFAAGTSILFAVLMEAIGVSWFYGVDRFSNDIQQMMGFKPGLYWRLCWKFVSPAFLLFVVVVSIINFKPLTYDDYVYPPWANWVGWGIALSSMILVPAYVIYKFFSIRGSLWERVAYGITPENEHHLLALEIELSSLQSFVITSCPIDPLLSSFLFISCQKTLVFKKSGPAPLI

Structure (SMILES)	Ki [1]	Ki [2]	Ratio (Cavia porcellus)	Ratio [3]	Ratio [4]	Ki [5]	Ki (Sigma 2 receptor)
OC(CCN1CCN(CCCN(c2ccc(F)cc2)c2ccc(F)cc2)CC1)c1ccccc1 (configuration not stated)	8.5 nM	803 nM	–	–	–	–	–
C[C@@H]1CN(CCCn2c3ccccc3c3ccccc32)C[C@@H](C)N1CCCc1ccccc1	263 nM	–	0.4	–	–	–	–
C[C@@H]1CN(CCCN(c2ccc(F)cc2)c2ccc(F)cc2)C[C@@H](C)N1	77.1 nM	–	1.6	219	170	–	–
CCN(CC)CCOC(=O)C1(c2ccccc2)CCCC1	5180 nM	–	–	–	–	–	–
C[C@@H]1CN(CCCN(c2ccccc2)c2ccccc2)C[C@@H](C)N1	–	–	0.2	8	87	–	–
Fc1ccc(N(CCCN2CCN(Cc3ccccc3)CC2)c2ccc(F)cc2)cc1	27.6 nM	3730 nM	0.5	190	140	5210 nM	78.1 nM
C[C@@H]1CN(CCCN(c2ccc(F)cc2)c2ccc(F)cc2)C[C@@H](C)N1CCc1ccc(Cl)c(Cl)c1	180 nM	4350 nM	–	–	–	–	–
Fc1ccc(N(CCCN2CCN(CCCc3ccccc3)CC2)c2ccc(F)cc2)cc1	18.1 nM	1210 nM	3.7	38	67	682 nM	–
C[C@@H]1CN(CCCn2c3ccc(Br)cc3c3cc(Br)ccc32)C[C@@H](C)N1	3890 nM	–	1.1	–	–	–	–
Fc1ccc(N(CCCN2CCNCC2)c2ccc(F)cc2)cc1	60.8 nM	133 nM	23	7	2	396 nM	385 nM
C[C@@H]1CN(CCCN(c2ccc(F)cc2)c2ccc(F)cc2)C[C@@H](C)N1CCCc1ccccc1	22.8 nM	–	0.5	45	94	–	18.6 nM
C[C@@H]1CN(CCCn2c3ccc([N+](=O)[O-])cc3c3cc([N+](=O)[O-])ccc32)C[C@@H](C)N1	174000 nM	–	–	–	–	–	–
C[C@@H]1CN(CCCn2c3ccccc3c3ccccc32)C[C@@H](C)N1C	436 nM	–	1.3	–	–	–	–
CCCN1CCC[C@@H](c2cccc(O)c2)C1 [PRECLAMOL]	3270 nM	–	–	–	–	–	–
C[C@@H]1CN(CCCN(c2ccccc2)c2ccccc2)C[C@@H](C)N1CCc1ccc(Cl)c(Cl)c1	272 nM	–	0.1	> 110	18	–	216 nM
C[C@@H]1CN(CCCn2c3ccccc3c3cc(N)ccc32)C[C@@H](C)N1	2400 nM	–	2.4	–	–	–	–
C[C@@H]1CN(CCCn2c3ccccc3c3cc([N+](=O)[O-])ccc32)C[C@@H](C)N1	109 nM	–	5.5	–	–	–	–
C[C@@H]1CN(CCCN(c2ccccc2)c2ccccc2)C[C@@H](C)N1CCCc1ccccc1	–	–	1.6	60	20	–	–

Source: ChEMBL document CHEMBL1145802, “Dual probes for the dopamine transporter and sigma1 receptors: novel piperazinyl alkyl-bis(4'-fluorophenyl)amine analogues as potential cocaine-abuse therapeutic agents” (J Med Chem, 2003)
